In patent publication US10138227B2, “Heteroaryl substituted pyridines and methods of use” (AbbVie S.à.r.l., priority 2016, dated 2018):
pEC50: −log10 of the molar value.

Assays:
Type in all cases: cell-based
CFTR-G1349D = target: T1, CFTR-G1349D (Homo sapiens, UniProt P13569, G1349D); assay: YFP-halide influx assay for the CFTR-G1349D
T1 construct: expressed in transfected cells; HEK293 with plasmid vectors inferred from the G551D protocol, to which the assay is called similar
Excerpt: (§1) The YFP halide influx assay measured the functionality of the cystic fibrosis Transmembrane Conductance regulator (CFTR) channels. The assay was used to evaluate the capacity of compounds to increase the channel opening of existing mutant CFTR channels in the membrane. It makes use of the observation that the yellow fluorescent protein (YFP) variant YFP H148Q, I152L, F47L has its fluorescence substantially quenched by halide ions like Cl^− and I^− (Galietta, L. J. V., Haggie, P. M., Verkman, A. S., 2001. Green fluorescent protein-based halide indicators with improved chloride and iodide affinities. FEBS Lett. 499, 220-224. doi:10.1016/S0014-5793(01)02561-3).
(§2) For this purpose, HEK293-cells were seeded in 96 well plates. During seeding, the cells were reverse-transfected with plasmid vectors that direct the expression of the CFTR G551D mutant and of the YFP reporter. Cells were incubated at 37° C., 5% CO2 for 24 hours so as to allow for sufficient expression of the CFTR protein.
(§3) The I^−-induced quenching of fluorescence was recorded immediately after injection of I^− for 7 seconds. The capacity of a compound to increase the channel opening was directly correlated with the decrease in fluorescence, and was expressed as (1-(fluorescence after 7 seconds (F)/fluorescence before injection (F0))) and an EC50 was derived from a (1−F/F0) vs compound concentration plot.
(§4) Similar YHA assays were developed for other channel gating defective or channel conductance defective CFTR mutants to determine effect of compound on channel activity. Examples of mutants are G178R, G1349D, S549N, R117H, R334W. This assay is also used for additional class I CFTR mutants, including G542X, W1282X; class II mutants including N1303K, and for class III mutants including S1251N; or wild-type CFTR.

CFTR ΔF508 mutant = target: T2, CFTR ΔF508 mutant (Homo sapiens, UniProt P13569, DEL508-508); assay: YFP-halide influx assay for the CFTR-ΔF508 mutation; conditions: CFBE41o- cells expressing CFTR ΔF508 and YFP reporter, forskolin 10.67 μM; for pEC50: (1-F/F0) vs concentration
T2 construct: expressed in transfected cells; host or cells: CFBE41o- cells transduced with adenoviral vectors
T2 sequence (P13569 with tags, fused parts or gaps DEL508-508): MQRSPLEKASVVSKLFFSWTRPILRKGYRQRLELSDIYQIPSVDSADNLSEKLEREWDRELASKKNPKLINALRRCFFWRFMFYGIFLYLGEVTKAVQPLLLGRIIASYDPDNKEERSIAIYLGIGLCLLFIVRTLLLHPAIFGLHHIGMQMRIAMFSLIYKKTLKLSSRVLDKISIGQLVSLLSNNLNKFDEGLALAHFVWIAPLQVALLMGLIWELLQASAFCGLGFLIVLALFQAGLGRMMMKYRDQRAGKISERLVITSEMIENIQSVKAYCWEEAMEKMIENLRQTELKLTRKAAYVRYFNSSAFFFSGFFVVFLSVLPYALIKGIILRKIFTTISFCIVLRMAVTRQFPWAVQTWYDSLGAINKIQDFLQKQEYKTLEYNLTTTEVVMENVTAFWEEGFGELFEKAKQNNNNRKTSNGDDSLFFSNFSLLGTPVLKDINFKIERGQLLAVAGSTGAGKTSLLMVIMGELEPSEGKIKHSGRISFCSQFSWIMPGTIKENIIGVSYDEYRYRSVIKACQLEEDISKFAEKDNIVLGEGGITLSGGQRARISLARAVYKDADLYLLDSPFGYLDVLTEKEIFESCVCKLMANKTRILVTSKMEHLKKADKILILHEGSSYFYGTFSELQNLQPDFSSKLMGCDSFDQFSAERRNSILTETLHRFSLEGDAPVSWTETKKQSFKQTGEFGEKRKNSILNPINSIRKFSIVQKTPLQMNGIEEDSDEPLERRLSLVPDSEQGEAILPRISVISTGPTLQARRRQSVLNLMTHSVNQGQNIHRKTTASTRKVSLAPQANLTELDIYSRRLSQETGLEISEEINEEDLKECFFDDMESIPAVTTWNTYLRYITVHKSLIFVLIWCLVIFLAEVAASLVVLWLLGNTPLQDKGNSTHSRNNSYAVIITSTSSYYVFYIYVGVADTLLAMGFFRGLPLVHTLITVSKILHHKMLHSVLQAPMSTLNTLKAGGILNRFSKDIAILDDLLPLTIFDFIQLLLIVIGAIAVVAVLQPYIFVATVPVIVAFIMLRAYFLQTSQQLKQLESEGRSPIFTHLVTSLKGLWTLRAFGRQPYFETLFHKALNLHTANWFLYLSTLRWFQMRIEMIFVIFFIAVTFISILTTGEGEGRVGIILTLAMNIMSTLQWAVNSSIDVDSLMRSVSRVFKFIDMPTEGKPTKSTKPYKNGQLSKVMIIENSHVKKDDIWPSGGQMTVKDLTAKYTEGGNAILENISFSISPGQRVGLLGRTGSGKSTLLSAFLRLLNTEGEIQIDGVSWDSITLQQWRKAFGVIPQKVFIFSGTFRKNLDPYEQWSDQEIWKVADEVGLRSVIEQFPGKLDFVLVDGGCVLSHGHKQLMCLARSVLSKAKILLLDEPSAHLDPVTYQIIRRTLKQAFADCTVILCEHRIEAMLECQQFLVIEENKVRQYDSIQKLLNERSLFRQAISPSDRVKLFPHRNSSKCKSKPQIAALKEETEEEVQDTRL
Excerpt: as §1, with “channels in the cystic fibrosis bronchial epithelium cell line CFBE41o-.” for “channels.”, “open probability” for “channel opening”, “existing” for “existing mutant”, “doi:10.1016/S0014-5793(01)02561-3; Nagai, T., Ibata, K., Park, E. S., Kubota, M., Mikoshiba, K., Miyawaki, A., 2002. A variant of yellow fluorescent protein with fast and efficient maturation for cell-biological applications. Nat. Biotechnol. 20, 87-90. doi:10.1038/nbt0102-87).” for “doi:10.1016/S0014-5793(01)02561-3).”
For this purpose, CFBE410-cells were seeded in 384 well plates (3000 CFBE cells/well). One day after seeding, the CFBE cells were transduced with adenoviral vectors that direct the expression of the CFTR ΔF508 mutant and of the YFP reporter. Cells were incubated at 27° C., 5% CO2 for 24 hours so as to allow for the proper folding and migration to the membrane of the CFTR channel or treated with a CFTR modulator during 24 hours at 37° C.
The I-induced quenching of fluorescence was recorded on an immediately after injection of iodide for 2 minutes on an FDSS/μCell (Hamamatsu). The capacity of a compound to increase the channel opening was directly correlated with the decrease in fluorescence, and was expressed as (1-(fluorescence after 36 seconds (F)/fluorescence before injection (F0))) and an EC50 was derived from a (1-F/F0) vs compound concentration plot.

CFTR G551D mutant = target: T3, CFTR G551D mutant (Homo sapiens, UniProt P13569, G551D); assay: YFP-halide influx assay for the CFTR-G551D mutation; conditions: HEK293 cells expressing CFTR G551D and YFP reporter; forskolin 10.67 μM
T3 construct: expressed in transfected cells; host or cells: HEK293 cells, reverse-transfected with plasmid vectors
T3 sequence (P13569 whole entry G551D): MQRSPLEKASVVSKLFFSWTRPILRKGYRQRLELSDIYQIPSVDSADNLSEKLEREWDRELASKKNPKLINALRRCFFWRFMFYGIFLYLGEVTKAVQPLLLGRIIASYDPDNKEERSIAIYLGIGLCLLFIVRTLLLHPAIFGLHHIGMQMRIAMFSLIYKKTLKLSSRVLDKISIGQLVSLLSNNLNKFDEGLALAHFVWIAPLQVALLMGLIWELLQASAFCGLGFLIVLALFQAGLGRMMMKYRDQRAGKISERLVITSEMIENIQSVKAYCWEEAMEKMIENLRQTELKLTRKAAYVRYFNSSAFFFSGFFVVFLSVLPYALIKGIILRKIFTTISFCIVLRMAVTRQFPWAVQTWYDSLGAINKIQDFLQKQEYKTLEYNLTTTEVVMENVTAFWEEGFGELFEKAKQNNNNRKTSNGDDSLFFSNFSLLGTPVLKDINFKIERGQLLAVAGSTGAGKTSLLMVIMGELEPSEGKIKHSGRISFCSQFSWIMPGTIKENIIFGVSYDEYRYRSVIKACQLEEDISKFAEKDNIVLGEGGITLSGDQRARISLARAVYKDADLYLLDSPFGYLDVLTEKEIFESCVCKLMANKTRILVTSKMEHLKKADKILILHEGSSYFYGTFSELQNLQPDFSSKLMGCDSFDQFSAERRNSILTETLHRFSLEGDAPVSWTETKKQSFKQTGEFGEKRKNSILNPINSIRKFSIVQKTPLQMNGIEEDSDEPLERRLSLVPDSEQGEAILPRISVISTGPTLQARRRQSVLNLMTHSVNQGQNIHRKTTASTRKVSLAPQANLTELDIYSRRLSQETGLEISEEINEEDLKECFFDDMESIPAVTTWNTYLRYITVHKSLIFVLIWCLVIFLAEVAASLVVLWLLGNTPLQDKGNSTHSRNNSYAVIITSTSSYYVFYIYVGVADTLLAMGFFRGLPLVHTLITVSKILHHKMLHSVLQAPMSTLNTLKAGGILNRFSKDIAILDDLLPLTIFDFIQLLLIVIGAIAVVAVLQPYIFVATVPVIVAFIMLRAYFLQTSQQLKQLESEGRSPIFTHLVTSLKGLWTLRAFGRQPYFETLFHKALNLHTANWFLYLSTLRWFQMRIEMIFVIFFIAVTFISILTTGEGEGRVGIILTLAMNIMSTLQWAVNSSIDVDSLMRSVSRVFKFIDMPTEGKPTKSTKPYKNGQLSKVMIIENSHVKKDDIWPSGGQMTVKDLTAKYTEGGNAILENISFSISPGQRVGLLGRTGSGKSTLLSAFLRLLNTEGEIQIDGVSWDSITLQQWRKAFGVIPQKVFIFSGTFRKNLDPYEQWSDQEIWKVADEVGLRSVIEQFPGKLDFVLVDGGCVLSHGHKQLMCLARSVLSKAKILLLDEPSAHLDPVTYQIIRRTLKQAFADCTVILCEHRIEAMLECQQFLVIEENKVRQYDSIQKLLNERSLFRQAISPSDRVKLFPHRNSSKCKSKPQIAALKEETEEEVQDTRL
Excerpt: as §1, §2, §3

CFTR-G178R = target: T4, CFTR-G178R (Homo sapiens, UniProt P13569, G178R); assay: YFP-halide influx assay for the CFTR-G178R
T4 construct: expressed in transfected cells; HEK293 with plasmid vectors inferred from the G551D protocol, to which the assay is called similar
T4 sequence (P13569 whole entry G178R): as the sequence (P13569 whole entry G551D) above, with G178R, D551G counted along it
Excerpt: as §1, §2, §3, §4

CFTR-R117H = target: T5, CFTR-R117H (Homo sapiens, UniProt P13569, R117H); assay: YFP-halide influx assay for the CFTR-R117H
T5 construct: expressed in transfected cells; HEK293 with plasmid vectors inferred from the G551D protocol, to which the assay is called similar
T5 sequence (P13569 whole entry R117H): as the sequence (P13569 whole entry G551D) above, with R117H, D551G counted along it
Excerpt: as §1, §2, §3, §4

CFTR-S549N = target: T6, CFTR-S549N (Homo sapiens, UniProt P13569, S549N); assay: YFP-halide influx assay for the CFTR-S549N
T6 construct: expressed in transfected cells; HEK293 with plasmid vectors inferred from the G551D protocol, to which the assay is called similar
T6 sequence (P13569 whole entry S549N): as the sequence (P13569 whole entry G551D) above, with S549N, D551G counted along it
Excerpt: as §1, §2, §3, §4

T1 sequence (P13569 whole entry G1349D): as the sequence (P13569 whole entry G551D) above, with D551G, G1349D counted along it

SMILES	% Activation (CFTR ΔF508 mutant) [%]	pEC50 (CFTR ΔF508 mutant)	further results
CC(O)(c1nnc(-c2ncc(S(=O)(=O)c3ccc(OC(F)(F)F)cc3)cc2N)o1)C(F)(F)F (stereo not shown) [Compound 3, 2-(5-{3-amino-5-[4-(trifluoromethoxy)benzene-1-sulfonyl]pyridin-2-yl}-1,3,4-oxadiazol-2-yl)-1,1,1-trifluoropropan-2-ol]	120.51	8.63	% Activation (CFTR-G1349D): 58.6%; pEC50 (CFTR-G1349D): 7.35; % Activation (CFTR G551D mutant): 49.0%; pEC50 (CFTR G551D mutant): 6.74; % Activation (CFTR-G178R): 57.4%; pEC50 (CFTR-G178R): 5.84; % Activation (CFTR-R117H): 89.0%; pEC50 (CFTR-R117H): 7.45; % Activation (CFTR-S549N): 56.3%; pEC50 (CFTR-S549N): 7.25
Nc1cc(S(=O)(=O)c2ccc(OC(F)(F)F)cc2)cnc1-c1nnc(COC(F)(F)F)o1 [Compound 15, 5-[4-(trifluoromethoxy)benzene-1-sulfonyl]-2-{5-[(trifluoromethoxy)methyl]-1,3,4-oxadiazol-2-yl}pyridin-3-amine]	113.65	8.16	
Nc1cc(S(=O)(=O)c2ccc(OC(F)(F)F)cc2)cnc1-c1nnc(COC(F)F)s1 [Compound 30, 2-{5-[(difluoromethoxy)methyl]-1,3,4-thiadiazol-2-yl}-5-[4-(trifluoromethoxy)benzene-1-sulfonyl]pyridin-3-amine]	94.98	8.44	
COC(C)c1nnc(-c2ncc(S(=O)(=O)c3ccc(OC(F)(F)F)cc3)cc2N)s1 (stereo not shown) [Compound 22, 2-[5-(1-methoxyethyl)-1,3,4-thiadiazol-2-yl]-5-[4-(trifluoromethoxy)benzene-1-sulfonyl]pyridin-3-amine]	112.9	7.82	
Nc1cc(S(=O)(=O)c2ccc(OC(F)(F)F)cc2)cnc1-c1ncc(CO)s1 [Compound 5, (2-{3-amino-5-[4-(trifluoromethoxy)benzene-1-sulfonyl]pyridin-2-yl}-1,3-thiazol-5-yl)methanol]	58.29	< 6.18	% Activation (CFTR G551D mutant): 0.3%; pEC50 (CFTR G551D mutant): < 5.00
Nc1cc(S(=O)(=O)c2ccc(OC(F)(F)F)cc2)cnc1-c1nc(CC2CC2)no1 [Compound 50, 2-[3-(cyclopropylmethyl)-1,2,4-oxadiazol-5-yl]-5-[4-(trifluoromethoxy)benzene-1-sulfonyl]pyridin-3-amine]	45.59	< 5.78	
Nc1cc(S(=O)(=O)c2ccccc2)cnc1-c1nnc(CO)o1 [Compound 61, {5-[3-amino-5-(benzenesulfonyl)pyridin-2-yl]-1,3,4-oxadiazol-2-yl}methanol]	97.36	7.01	
CN(Cc1ccccc1)S(=O)(=O)c1cnc(-c2nnc(CO)o2)c(N)c1 [Compound 60, 5-amino-N-benzyl-6-[5-(hydroxymethyl)-1,3,4-oxadiazol-2-yl]-N-methylpyridine-3-sulfonamide]	122.9	7.82	
Nc1cc(S(=O)(=O)c2ccc(OC(F)(F)F)cc2)cnc1-c1nnc(CNC(=S)C2CC2)s1 [Compound 18, N-[(5-{3-amino-5-[4-(trifluoromethoxy)benzene-1-sulfonyl]pyridin-2-yl}-1,3,4-thiadiazol-2-yl)methyl]cyclopropanecarbothioamide]	106.2	8.04	
COC(C)c1noc(-c2ncc(S(=O)(=O)c3ccc(OC(F)(F)F)cc3)cc2N)n1 (stereo not shown) [Compound 47, 2-[3-(1-methoxyethyl)-1,2,4-oxadiazol-5-yl]-5-[4-(trifluoromethoxy)benzene-1-sulfonyl]pyridin-3-amine]	59.4	< 5.78	
Nc1cc(S(=O)(=O)c2ccc(OC(F)(F)F)cc2)cnc1-c1nnc(COC(F)(F)F)s1 [Compound 28, 5-[4-(trifluoromethoxy)benzene-1-sulfonyl]-2-{5-[(trifluoromethoxy)methyl]-1,3,4-thiadiazol-2-yl}pyridin-3-amine]	50.3		
CC(O)c1nnc(-c2ncc(S(=O)(=O)c3ccc(OC(F)(F)F)cc3)cc2N)o1 (stereo not shown) [Compound 42, 1-(5-{3-amino-5-[4-(trifluoromethoxy)benzene-1-sulfonyl]pyridin-2-yl}-1,3,4-oxadiazol-2-yl)ethan-1-ol]	109.65	8.80	
COC(C)(C)c1noc(-c2ncc(S(=O)(=O)c3ccc(OC(F)(F)F)cc3)cc2N)n1 [Compound 46, 2-[3-(2-methoxypropan-2-yl)-1,2,4-oxadiazol-5-yl]-5-[4-(trifluoromethoxy)benzene-1-sulfonyl]pyridin-3-amine]	82.3	< 5.78	
